Experimental findings from PubChem BioAssay AID330 (DTP/NCI, 2004) are described below.

The structures appear in SMILES notation. “And” between values parts separate entries of the source, which are not always exact repeats. Identical values can stand only once. Inconclusive results and toxic doses are left out.

In the experiment the test system is P388 leukemia ip, CD2F1 mice, survival T/C. Briefly: NCI In Vivo Anticancer Drug Screen. Data for tumor model P388 Leukemia (intraperitoneal) in CD2F1 (CDF1) mice. The settings on record: endpoint: median survival time, higher = longer survival. An outline of the steps:
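Mice carrying the transplanted tumor received test compound or vehicle. Survival was recorded in each group, and the value is the treated-group measurement divided by that of the vehicle-treated control group.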

Setting [1] is: dose: 50.0 mg/kg/injection, schedule: Q01DX005 (ip), vehicle: saline with Tween-80.
Where [2] appears, read: dose: 100.0 mg/kg/injection, schedule: Q01DX005 (ip), vehicle: saline with Tween-80.
Setting [3] is: dose: 200.0 mg/kg/injection, schedule: Q01DX005 (ip), vehicle: saline with Tween-80.
Setting [4] is: dose: 50.0 mg/kg/injection, schedule: Q01DX005 (ip), vehicle: saline.
The mark [5] stands for this setting: dose: 100.0 mg/kg/injection, schedule: Q01DX005 (ip), vehicle: saline.
[6] abbreviates: dose: 200.0 mg/kg/injection, schedule: Q01DX005 (ip), vehicle: saline.

Regarding `CCC1(O)CN2CCc3c([nH]c4ccccc34)C1C(/C=C(\C(=O)OC)c1cc3c(cc1OC)N(C)C1C(O)(C(=O)OC)C(OC(C)=O)C4(CC)C=CCN5CCC31C54)C2` (stereo not drawn), the T/C reads like this: (dose: 1.0 mg/kg/injection, schedule: Q01DX001 (ip), vehicle: distilled water + Tween-80) 102 % of control; (dose: 2.0 mg/kg/injection, schedule: Q01DX001 (ip), vehicle: distilled water + Tween-80) 100 % of control; (dose: 2.0 mg/kg/injection, schedule: Q01DX009 (ip), vehicle: distilled water + alcohol) 160 % of control; (dose: 4.0 mg/kg/injection, schedule: Q01DX001 (ip), vehicle: distilled water + Tween-80) 100 % of control; (dose: 4.0 mg/kg/injection, schedule: Q01DX009 (ip), vehicle: distilled water + alcohol) 152 % of control; (dose: 8.0 mg/kg/injection, schedule: Q01DX001 (ip), vehicle: distilled water + Tween-80) 102 % of control. Moreover, the T/C (dose: 16.0 mg/kg/injection, schedule: Q01DX001 (ip), vehicle: distilled water + Tween-80) was 112 % of control and the T/C (dose: 32.0 mg/kg/injection, schedule: Q01DX001 (ip), vehicle: distilled water + Tween-80) is 100 % of control.
As to `CNC(=O)OCc1c(COC(=O)NC)c(-c2ccsc2)n2c1CCC2`, the T/C is 118 % of control (dose: 15.0 mg/kg/injection, schedule: Q01DX005 (ip), vehicle: saline with Tween-80); 119 % of control and 124 % of control (dose: 60.0 mg/kg/injection, schedule: Q01DX005 (ip), vehicle: saline with Tween-80).
As to `O=C(Nc1ccccc1)OC(CS(=O)(=O)c1ccccc1)C(Cl)(Cl)Cl` (stereo not drawn), the T/C by setting is: under setting [1], 92 % of control; under setting [2], 96 % of control; under setting [3], 95 % of control.
In the case of `COc1cc2c(cc1OC)C(CCCCCCCC1NCCc3cc(OC)c(OC)cc31)NCC2` (stereo not drawn), the T/C was 102 % of control (dose: 12.5 mg/kg/injection, schedule: Q01DX005 (ip), vehicle: saline); 96 % of control (dose: 25.0 mg/kg/injection, schedule: Q01DX005 (ip), vehicle: saline); 100 % of control and 101 % of control under setting [4].
Regarding `COC(=O)c1c(C(=O)Nc2ccc(Cl)cc2)c(C)n(NC(N)=O)c1C`, the T/C was 95 % of control under setting [1], 95 % of control under setting [2] and 101 % of control under setting [3].
With `O=C(O)c1nnn(-c2ccccc2)n1`, the T/C by setting is: under setting [4], 101 % of control; under setting [5], 101 % of control; under setting [6], 106 % of control.
Consider `CCN(CC)CCNc1nc(NCCN(CC)CC)c2cn[nH]c2n1`, for which the T/C was 99 % of control (dose: 1.5 mg/kg/injection, schedule: Q01DX005 (ip), vehicle: saline); 103 % of control (dose: 3.0 mg/kg/injection, schedule: Q01DX005 (ip), vehicle: saline); 100 % of control and 102 % of control (dose: 6.0 mg/kg/injection, schedule: Q01DX005 (ip), vehicle: saline).
For the molecule `CCOC(=O)C(CC)(COCc1ccccc1)C(=O)OCC`, the T/C is, setting by setting: (dose: 50.0 mg/kg/injection, schedule: Q01DX009 (ip), vehicle: other) 100 % of control; (dose: 100.0 mg/kg/injection, schedule: Q01DX009 (ip), vehicle: other) 100 % of control; (dose: 200.0 mg/kg/injection, schedule: Q01DX009 (ip), vehicle: other) 100 % of control.
As for `CC1(C)OP(=O)(O)c2ccccc21`, the T/C reads like this: (dose: 50.0 mg/kg/injection, schedule: Q01DX009 (ip), vehicle: Klucel (hydroxypropylcellulose) (HPC)) 100 % of control; (dose: 100.0 mg/kg/injection, schedule: Q01DX009 (ip), vehicle: Klucel (hydroxypropylcellulose) (HPC)) 100 % of control; (dose: 200.0 mg/kg/injection, schedule: Q01DX009 (ip), vehicle: Klucel (hydroxypropylcellulose) (HPC)) 88 % of control.
`Cc1cccnc1NCc1ccccn1`: the T/C was 103 % of control under setting [1], 100 % of control under setting [2] and 93 % of control under setting [3].
For the molecule `CNC(=S)NC(C)(C)C`, the T/C reads like this: (dose: 15.0 mg/kg/injection, schedule: Q01DX005 (ip), vehicle: Klucel (hydroxypropylcellulose) (HPC)) 97 % of control; (dose: 30.0 mg/kg/injection, schedule: Q01DX005 (ip), vehicle: Klucel (hydroxypropylcellulose) (HPC)) 97 % of control; (dose: 60.0 mg/kg/injection, schedule: Q01DX005 (ip), vehicle: Klucel (hydroxypropylcellulose) (HPC)) 103 % of control and 98 % of control.
With `[Cl][Pd]([Cl])([Cl])[Cl]`, the T/C is, setting by setting: (dose: 12.5 mg/kg/injection, schedule: Q01DX009 (ip), vehicle: saline) 86 % of control; (dose: 25.0 mg/kg/injection, schedule: Q01DX009 (ip), vehicle: saline) 96 % of control; (dose: 50.0 mg/kg/injection, schedule: Q01DX009 (ip), vehicle: saline) 95 % of control.
For the molecule `Cc1ccc(Nc2ccc(Cl)cc2[N+](=O)[O-])cc1`, the T/C runs as follows: (dose: 15.0 mg/kg/injection, schedule: Q01DX005 (ip), vehicle: Klucel + Tween-80) 95 % of control; (dose: 30.0 mg/kg/injection, schedule: Q01DX005 (ip), vehicle: Klucel + Tween-80) 98 % of control; (dose: 60.0 mg/kg/injection, schedule: Q01DX005 (ip), vehicle: Klucel + Tween-80) 100 % of control and 94 % of control.
Turning to `CN[C@H]1CC[C@]23C[C@]24CC[C@]2(C)[C@@H]([C@H](C)N(C)C)CC[C@@]2(C)[C@@H]4CC[C@H]3C1(C)C`, the T/C (dose: 3.12 mg/kg/injection, schedule: Q01DX009 (ip), vehicle: saline with Tween-80) is 112 % of control; the T/C (dose: 6.25 mg/kg/injection, schedule: Q01DX009 (ip), vehicle: saline with Tween-80) was 100 % of control; the T/C (dose: 12.5 mg/kg/injection, schedule: Q01DX009 (ip), vehicle: saline with Tween-80) was 102 % of control; the T/C (dose: 25.0 mg/kg/injection, schedule: Q01DX009 (ip), vehicle: saline with Tween-80) was 102 % of control; the T/C (dose: 50.0 mg/kg/injection, schedule: Q01DX009 (ip), vehicle: saline with Tween-80) is 118 % of control.
As for `COP(=O)(OC)C1(Nc2ccccc2)C2CC3CC(C2)CC1C3` (stereo not drawn), the T/C is, setting by setting: (dose: 100.0 mg/kg/injection, schedule: Q01DX001 (ip), vehicle: saline with Tween-80) 105 % of control; (dose: 200.0 mg/kg/injection, schedule: Q01DX001 (ip), vehicle: saline with Tween-80) 110 % of control; (dose: 400.0 mg/kg/injection, schedule: Q01DX001 (ip), vehicle: saline with Tween-80) 102 % of control.
In the case of `Nc1nc(N)c(Cl)c(Nc2cccc(Cl)c2)n1`, the T/C (dose: 6.25 mg/kg/injection, schedule: Q01DX001 (ip), vehicle: saline with Tween-80) is 94 % of control.
Consider `CC(=O)c1c(O)c(C)c(O)c2c1OC1=Cc3c(c(C)nn3C)C(=O)C12C` (stereo not drawn), for which the T/C is 100 % of control and 109 % of control (dose: 6.25 mg/kg/injection, schedule: Q01DX009 (ip), vehicle: gum acacia); 119 % of control and 92 % of control and 93 % of control (dose: 50.0 mg/kg/injection, schedule: Q01DX009 (ip), vehicle: gum acacia).
Turning to `O=C1C=C(NCC2CCCN3CCCCC23)C(=O)c2ccccc21` (stereo not drawn), the T/C was 112 % of control (dose: 94.62 mg/kg/injection, schedule: Q04DX002 (ip), vehicle: Klucel (hydroxypropylcellulose) (HPC)) and 111 % of control (dose: 189.25 mg/kg/injection, schedule: Q04DX002 (ip), vehicle: Klucel (hydroxypropylcellulose) (HPC)).
Consider `CCCCCCCC(=O)N/N=C(\CO)[C@]1(O)Cc2c(O)c3c(c(O)c2[C@@H](OC2CC(N)C(O)C(C)O2)C1)C(=O)c1c(OC)cccc1C3=O` (stereo partly drawn), for which the T/C is, setting by setting: (dose: 1.25 mg/kg/injection, schedule: Q04DX003 (ip), vehicle: water) 109 % of control; (dose: 2.5 mg/kg/injection, schedule: Q04DX003 (ip), vehicle: water) 109 % of control; (dose: 5.0 mg/kg/injection, schedule: Q04DX003 (ip), vehicle: water) 107 % of control; (dose: 10.0 mg/kg/injection, schedule: Q04DX003 (ip), vehicle: water) 119 % of control and 121 % of control; (dose: 20.0 mg/kg/injection, schedule: Q04DX003 (ip), vehicle: water) 123 % of control; (dose: 80.0 mg/kg/injection, schedule: Q04DX003 (ip), vehicle: water) 179 % of control.
In the case of `Cc1nnc2sc(C(F)(F)F)nn12`, the T/C by setting is: (dose: 50.0 mg/kg/injection, schedule: Q01DX001 (ip), vehicle: Klucel (hydroxypropylcellulose) (HPC)) 99 % of control; (dose: 100.0 mg/kg/injection, schedule: Q01DX001 (ip), vehicle: Klucel (hydroxypropylcellulose) (HPC)) 98 % of control; (dose: 200.0 mg/kg/injection, schedule: Q01DX001 (ip), vehicle: Klucel (hydroxypropylcellulose) (HPC)) 101 % of control.
Take `CCN(CC)CCNC`: the T/C under setting [4] is 99 % of control, the T/C under setting [5] was 95 % of control and the T/C under setting [6] was 98 % of control.
